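Dose response: 5 concentrations. Exposure: 48 h. Format: 96-well plates. Endpoint: linear interpolation; highest concentration if not reached. GI50 is the concentration that inhibits growth by half. TGI: total growth inhibition.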

Test systems include NCI-H23 lung; SK-MEL-5 melanoma; 786-0 renal; EKVX NSCLC; KM12 colon; SK-OV-3 ovarian; HCC-2998 colon; PC-3 prostate; SK-MEL-2 melanoma; HS 578T breast; RXF 393 renal.
Common to all, as to assay: NCI tumour cell line growth inhibition, 48 h

Consider `N#C[S-].[Ce+3].c1cnc2c(c1)ccc1cccnc12.c1cnc2c(c1)ccc1cccnc12.c1cnc2c(c1)ccc1cccnc12`, for which the TGI worked out at 75.6 µM in the experiment with NCI-H23 lung; 15.2 µM in the experiment with SK-MEL-5 melanoma; 11.1 µM in the experiment on 786-0 renal; 17.4 µM in the experiment on EKVX NSCLC; 18.3 µM with KM12 colon; 13.5 µM in the experiment with SK-OV-3 ovarian. Besides, in the experiment on HCC-2998 colon, the TGI was found to be 18.9 µM.
With `COc1cc2c(cc1OC)-c1cc3ccc(OC)c(OC)c3c[n+]1CC2`, the TGI in the experiment with PC-3 prostate, in the experiment with SK-MEL-5 melanoma, with SK-MEL-2 melanoma, in the experiment on HS 578T breast, in the experiment on 786-0 renal and in the experiment on EKVX NSCLC was greater than 100 µM throughout. The TGI in the experiment on KM12 colon, in the experiment on SK-OV-3 ovarian, in the experiment with RXF 393 renal and with HCC-2998 colon was greater than 100 µM throughout.
Consider `O=C(NNC(=O)c1nsc2ccccc12)c1ccc(Cl)cc1`, for which the TGI with NCI-H23 lung amounted to 59.9 µM; in the experiment on SK-MEL-5 melanoma, 59.2 µM; in the experiment with SK-MEL-2 melanoma it was 45.7 µM; in the experiment on EKVX NSCLC it was 42.3 µM; in the experiment on KM12 colon it was 65.7 µM; with RXF 393 renal it was 30.3 µM. This molecule also showed a TGI with HCC-2998 colon of 31 µM.
As to `CCOC(=O)c1c(CN2CCCC2)n(-c2ccccc2)c2cc(Br)c(OC)cc12`, the TGI is 77.2 µM in the experiment with PC-3 prostate; 63.3 µM in the experiment with NCI-H23 lung; 25.3 µM in the experiment with SK-MEL-5 melanoma; 38.3 µM in the experiment on SK-MEL-2 melanoma; greater than 100 µM in the experiment with HS 578T breast; 32 µM in the experiment with 786-0 renal. The TGI in the experiment on EKVX NSCLC is 55.5 µM; with SK-OV-3 ovarian, 78.3 µM; in the experiment on RXF 393 renal, 17.5 µM.
For the molecule `CNC(=O)Nc1ccccc1`, the TGI in the experiment with PC-3 prostate, in the experiment on NCI-H23 lung, in the experiment with SK-MEL-5 melanoma, in the experiment with SK-MEL-2 melanoma, in the experiment with HS 578T breast and in the experiment on 786-0 renal was greater than 100 µM each time. Also, the TGI with EKVX NSCLC, with KM12 colon, with RXF 393 renal and in the experiment with HCC-2998 colon was greater than 100 µM in each case.
Regarding `C[N+](C)(CCO)CCN1c2ccccc2Sc2ccccc21`, the TGI in the experiment with PC-3 prostate, with NCI-H23 lung, in the experiment with SK-MEL-5 melanoma, with SK-MEL-2 melanoma, with HS 578T breast and in the experiment with EKVX NSCLC was greater than 10 µM in each case. Further, the TGI in the experiment on KM12 colon, in the experiment on SK-OV-3 ovarian, with RXF 393 renal and in the experiment on HCC-2998 colon was greater than 10 µM throughout.
For `O=C1C[C@H](CCC(=O)OCc2ccccc2)NC(=O)C[C@H](CCC(=O)OCc2ccccc2)NC(=O)C[C@H](CCC(=O)OCc2ccccc2)N1`, the TGI in the experiment on PC-3 prostate, in the experiment on NCI-H23 lung, with SK-MEL-5 melanoma, with SK-MEL-2 melanoma, in the experiment with HS 578T breast and in the experiment on 786-0 renal was greater than 100 µM each time. Moreover, the TGI in the experiment with EKVX NSCLC is greater than 100 µM; in the experiment on KM12 colon, greater than 100 µM; with SK-OV-3 ovarian, 29 µM; in the experiment with RXF 393 renal, 8.23 µM; with HCC-2998 colon, greater than 100 µM.
Turning to `Clc1ccc(-c2nnc(-c3c(Cl)c(Cl)c(Cl)c(Cl)c3-c3nc4ccccc4[nH]3)o2)cc1`, the TGI in the experiment on PC-3 prostate, in the experiment with NCI-H23 lung, in the experiment on SK-MEL-5 melanoma, with SK-MEL-2 melanoma, in the experiment with HS 578T breast and in the experiment with 786-0 renal was greater than 100 µM each time. For the same molecule, the TGI in the experiment on EKVX NSCLC, in the experiment with KM12 colon, in the experiment with SK-OV-3 ovarian, in the experiment on RXF 393 renal and with HCC-2998 colon was greater than 100 µM in each case.
For `COc1ccc(C)cc1Nc1nnc(-c2ccc(N)cc2)s1`, the TGI in the experiment with PC-3 prostate, in the experiment on NCI-H23 lung, in the experiment with SK-MEL-5 melanoma, in the experiment with SK-MEL-2 melanoma, in the experiment on HS 578T breast and with 786-0 renal was greater than 100 µM each time. The TGI in the experiment with EKVX NSCLC, in the experiment with KM12 colon, in the experiment with SK-OV-3 ovarian, in the experiment on RXF 393 renal and in the experiment with HCC-2998 colon was greater than 100 µM in each case.
As for `O=c1/c(=C/c2ccc([N+](=O)[O-])o2)sc2n1[C@@H](c1ccc3c(c1)OCO3)C=C(c1cc(F)c(Cl)cc1Cl)N=2`, the TGI was greater than 100 µM in the experiment with PC-3 prostate; 46.8 µM in the experiment on NCI-H23 lung; 24 µM in the experiment with SK-MEL-5 melanoma; 83 µM in the experiment on SK-MEL-2 melanoma; greater than 100 µM with HS 578T breast; 42.1 µM in the experiment on 786-0 renal. In addition, the TGI in the experiment with EKVX NSCLC is 32.7 µM; in the experiment on KM12 colon, 38.4 µM; in the experiment on SK-OV-3 ovarian it was greater than 100 µM; in the experiment with RXF 393 renal it was 43.2 µM; with HCC-2998 colon, 28.7 µM.
In the case of `CC(=O)C1=C(O)CCC1=O`, the TGI with PC-3 prostate, in the experiment on NCI-H23 lung, in the experiment with SK-MEL-5 melanoma, with SK-MEL-2 melanoma, with HS 578T breast and in the experiment on EKVX NSCLC was greater than 100 µM throughout. Also, the TGI in the experiment with KM12 colon, in the experiment on SK-OV-3 ovarian, in the experiment on RXF 393 renal and with HCC-2998 colon was greater than 100 µM in each case.
Regarding `Cn1c(=O)c2c(nc(NCCNc3nc4c(c(=O)n(C)c(=O)n4C)n3C)n2C)n(C)c1=O`, the TGI in the experiment on PC-3 prostate, in the experiment with NCI-H23 lung, in the experiment on SK-MEL-5 melanoma, with SK-MEL-2 melanoma, in the experiment on HS 578T breast and with 786-0 renal was greater than 100 µM throughout. The TGI in the experiment with EKVX NSCLC, in the experiment with KM12 colon, in the experiment with RXF 393 renal and in the experiment with HCC-2998 colon was greater than 100 µM throughout.
For the molecule `NC(CC(=O)O)(Cc1ccccc1)C(=O)O` (stereo not drawn), the TGI in the experiment on PC-3 prostate, in the experiment on NCI-H23 lung, in the experiment on SK-MEL-5 melanoma, in the experiment on SK-MEL-2 melanoma, in the experiment with HS 578T breast and in the experiment with 786-0 renal was greater than 100 µM each time. Further, the TGI in the experiment on EKVX NSCLC, with KM12 colon, in the experiment on SK-OV-3 ovarian and in the experiment with RXF 393 renal was greater than 100 µM in each case.
In the case of `C[C@]12CCC(=O)C=C1CC[C@@H]1[C@@H]2[C@@H](O)C[C@@]2(C)[C@H]1CC[C@]2(O)C(=O)COC(=O)C1CCCC1`, the TGI in the experiment on PC-3 prostate, in the experiment on NCI-H23 lung, in the experiment with SK-MEL-5 melanoma, with SK-MEL-2 melanoma, in the experiment on HS 578T breast and with 786-0 renal was greater than 100 µM each time. Also, the TGI in the experiment on EKVX NSCLC, in the experiment with KM12 colon, in the experiment with SK-OV-3 ovarian, in the experiment on RXF 393 renal and in the experiment with HCC-2998 colon was greater than 100 µM throughout.
In the case of `COc1ccc2nc3ccccc3c(NCc3ccc(C)cc3)c2c1`, the GI50 is 1.64 µM in the experiment with PC-3 prostate; 1.68 µM in the experiment with NCI-H23 lung; 1.77 µM in the experiment with SK-MEL-5 melanoma; 1.85 µM with SK-MEL-2 melanoma; 2.5 µM with EKVX NSCLC; 2.6 µM in the experiment on KM12 colon. In addition, the GI50 in the experiment with SK-OV-3 ovarian is 2.58 µM; with RXF 393 renal, 1.32 µM; with HCC-2998 colon, 1.73 µM. The TGI in the experiment with PC-3 prostate is 4.49 µM; in the experiment with NCI-H23 lung, 4.26 µM; with SK-MEL-5 melanoma it was 3.19 µM; in the experiment on SK-MEL-2 melanoma, 3.68 µM; in the experiment on EKVX NSCLC it was 7.94 µM; with KM12 colon it was 8.49 µM. Further, the figures for the TGI in the experiment with SK-OV-3 ovarian, in the experiment with RXF 393 renal and in the experiment with HCC-2998 colon were 8.41 µM, 2.83 µM and 3.26 µM, respectively.
Regarding `Cc1ccc(SSCCCCCS(=O)O)cc1`, the TGI was 88.9 µM with NCI-H23 lung; 59.2 µM in the experiment with SK-MEL-2 melanoma; greater than 100 µM in the experiment on EKVX NSCLC; greater than 100 µM with KM12 colon; greater than 100 µM with SK-OV-3 ovarian; 43.3 µM in the experiment on RXF 393 renal. The same molecule came in with a TGI in the experiment on HCC-2998 colon greater than 100 µM.
As to `O=C(COc1ccc(Cl)cc1Cl)N/N=C/C=C/c1ccc([N+](=O)[O-])o1`, the TGI in the experiment with PC-3 prostate is greater than 100 µM; in the experiment with NCI-H23 lung, 39 µM; in the experiment with SK-MEL-5 melanoma, 5.26 µM; with SK-MEL-2 melanoma it was greater than 100 µM; in the experiment with HS 578T breast, 7.4 µM; in the experiment with 786-0 renal it was 65.9 µM. In addition, the TGI is greater than 100 µM in the experiment on EKVX NSCLC, greater than 100 µM in the experiment on KM12 colon, 59.6 µM in the experiment with SK-OV-3 ovarian and 59.8 µM with RXF 393 renal.

(Values after PubChem BioAssay (NCI).)
